Assay results reported in the supplement of paper PMC4862054.

Experiments:
CAL-85-1 [1] = test: drug sensitivity score (DSS), CellTiter-Glo (DSS (AUC-based score)); higher = stronger drug effect (viability inhibition or cytotoxicity); extreme values may be limits of the assay; details: incubation time: 72 h
Outline: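 Each compound occupied 5 concentrations in 10-fold steps over its own 10,000-fold range in 384-well plates, into which breast cancer cell lines were seeded as 20 µl suspension. Following 72 h of incubation, CellTox Green fluorescence (485/520 nm) was measured, and CellTiter-Glo luminescence was measured after 10 min at room temperature. Plates were individually normalised to 0.1 % DMSO and a positive kill control. From the area under the fitted dose-response curve, a drug sensitivity score was calculated.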

CAL-51 [2] = details: 72 h
Procedure: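 Drug sensitivity and resistance testing (DSRT) of breast cancer cell lines in 384-well plates, 5 concentrations in 10-fold dilutions over a compound-specific 10,000-fold range. After 72 h, cytotoxicity was read by CellTox Green fluorescence and viability by CellTiter-Glo luminescence (multiplexed), normalised to DMSO and benzethonium chloride controls. EC50 is the inflection point of the fitted dose-response curve (bottom asymptote free, so it can be relative for partial curves) and is censored at the highest tested concentration. Rows with DSS 0 (no meaningful response) were excluded.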

HCC1143 = details: 72 h
Outline: (§1)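 In this assay, breast cancer cell lines spent 72 h with compound at 5 concentrations in 10-fold steps over a compound-specific 10,000-fold range. The first readout was cell death by CellTox Green fluorescence, and the second was viability by CellTiter-Glo luminescence, each normalised per plate to 0.1 % DMSO and a positive kill control. EC50 came from the dose-response curves, censored at the top concentration.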

CAL-148 [3] = details: 72 h
Outline: as §1

HDQ-P1 [4] = details: 72 h
Outline: as §1

MDA-MB-453 [5] = details: 72 h
Outline: as §1

MCF-10A = details: 72 h
Outline: as §1

BT-549 = details: 72 h
Outline: as §1

HCC1599 = details: 72 h
Outline: as §1

MDA-MB-468 = details: 72 h
Outline: as §1

BT-474 = details: 72 h
Outline: as §1

MFM-223 = details: 72 h
Outline: as §1

MDA-MB-231 = details: 72 h
Outline: as §1

CAL-51 [6] = details: 72 h; remark: listed apart in the source
Outline: as §1

DU-4475 [7] = details: 72 h
Outline: as §1

Hs578T = details: 72 h
Outline: as §1

SK-BR-3 = details: 72 h
Outline: as §1

HCC1937 = details: 72 h
Outline: as §1

CAL-120 = details: 72 h
Outline: as §1

CAL-85-1 [8] = details: 72 h
Outline: as §1

MDA-MB-436 = details: 72 h
Outline: as §1

CAL-148 [9] = details: 72 h; remark: listed apart in the source
Outline: (§2)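 Plates of 384 wells holding compound in 5 µl medium received breast cancer cell lines in 20 µl suspension and were incubated 72 h. CellTiter-Blue (2.5 µl, 2 h, 37 °C) was used for viability, read at 560/590 nm, and every plate was normalised to vehicle and a positive kill control and assessed by Z'-factor. The EC50 derives from a percent-inhibition dose-response curve fit censored at the highest concentration, leaving out rows whose drug sensitivity score was zero.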

HDQ-P1 [10] = details: 72 h; remark: listed apart in the source
Outline: as §2

MDA-MB-453 [11] = details: 72 h; remark: listed apart in the source
Outline: as §2

CAL-51 [12] = details: 72 h; remark: listed apart in the source
Outline: as §2

DU-4475 [13] = details: 72 h; remark: listed apart in the source
Outline: as §2

CAL-85-1 [14] = details: 72 h; remark: listed apart in the source
Outline: as §2

EC50, CellTiter-Glo (HCC1143) [nM] | EC50, CellTiter-Glo (MDA-MB-453 [5]) [nM] | EC50, CellTiter-Glo (BT-549) [nM] | EC50, CellTiter-Glo (HCC1599) [nM] | EC50, CellTiter-Glo (MDA-MB-468) [nM] | EC50, CellTiter-Glo (BT-474) [nM] | EC50, CellTiter-Glo (MDA-MB-231) [nM] | EC50, CellTiter-Glo (SK-BR-3) [nM] | EC50, CellTiter-Glo (HCC1937) [nM] | EC50, CellTiter-Glo (MDA-MB-436) [nM] | EC50, CellTiter-Blue viability (MDA-MB-453 [11]) [nM] | SMILES | drug sensitivity score (CAL-85-1 [1]) | EC50, CellTox Green (CAL-51 [2]) [nM] | EC50, CellTiter-Glo (CAL-148 [3]) [nM] | EC50, CellTiter-Glo (HDQ-P1 [4]) [nM] | EC50, CellTiter-Glo (MCF-10A) [nM] | EC50, CellTiter-Glo (MFM-223) [nM] | EC50, CellTiter-Glo (CAL-51 [6]) [nM] | EC50, CellTiter-Glo (DU-4475 [7]) [nM] | EC50, CellTiter-Glo (Hs578T) [nM] | EC50, CellTiter-Glo (CAL-120) [nM] | EC50, CellTiter-Glo (CAL-85-1 [8]) [nM] | EC50, CellTiter-Blue viability (CAL-148 [9]) [nM] | EC50, CellTiter-Blue viability (HDQ-P1 [10]) [nM] | EC50, CellTiter-Blue viability (CAL-51 [12]) [nM] | EC50, CellTiter-Blue viability (DU-4475 [13]) [nM] | EC50, CellTiter-Blue viability (CAL-85-1 [14]) [nM]
416 | 153 | 92.6 | 190 | 370 | 421 | 483 | 13.7 | 157 | 141 | 64 | COc1c(C)cnc(Cn2cnc3c(Cl)nc(N)nc32)c1C [BIIB021] | 14.7 | 758 | 199 | 242 | 354 | 192 | 227 | 329 | 756 | 247 | 308 | 133 | 241 | 341 | 143 | 490
19 | 22.9 | 3.96 | 97 | 2.93 | 8.94 | 13.9 | 0.28 | 71.2 | 6.1 | 6.36 | CC(C)C[C@H](NC(=O)[C@H](Cc1ccccc1)NC(=O)c1cnccn1)B(O)O [Bortezomib] | 28.4 | 27.5 | 60.1 | 12.4 | 134 | 5.1 | 30 | 27.1 | 13.1 | 16.1 | 4.47 | 24.7 | 5.29 | 38.9 | 18.6 | 7.76
783 | 123 | 1170 | 911 | 202 | 1970 | 689 | 507 | 1470 | 1640 | 168 | C#Cc1cccc(Nc2ncnc3cc(OC)c(OCCCCCCC(=O)NO)cc23)c1 [CUDC-101] | 19.7 | 2460 | 1280 | 3360 | 242 | 190 | 847 | 1500 | 1920 | 3230 | 212 | 817 | 213 | 3790 | 1130 | 426
535 | 470 | 129 | 570 | 109 | 169 | 221 | 254 | 692 | 175 | 465 | COc1cccc2c1C(=O)c1c(O)c3c(c(O)c1C2=O)C[C@@](O)(C(C)=O)C[C@@H]3O[C@H]1C[C@H](N)[C@H](O)[C@H](C)O1 [Daunorubicin] | 4.68 | 183 | 134 | 519 | 633 | 784 | 84.2 | 211 | 229 | 227 | 380 | 66.1 | 338 | 59 | 56.4 | 290
6310 | 3390 | 3180 | 5810 | 4130 | 4080 | 3390 | 1820 | 2130 | 1050 | 96.5 | COC1=C2C[C@@H](C)C[C@H](OC)[C@H](O)[C@@H](C)/C=C(\C)[C@H](OC(N)=O)[C@@H](OC)/C=C\C=C(/C)C(=O)NC(=CC1=O)C2=O [Geldanamycin] | 6 | 8440 | 7190 | 3910 | 4380 | 666 | 3480 | 2470 | 5350 | 6700 | 2680 | 223 | 81.4 | 535 | 137 | 270
3.37 | 22.6 | 4.79 | 16.9 | 3.47 | 7.94 | 10.7 | 0.72 | 2.62 | 4.07 | 4.03 | CC(=O)O[C@H]1C(=O)[C@@]2(C)[C@H]([C@H](OC(=O)c3ccccc3)[C@]3(O)C[C@H](OC(=O)[C@H](O)[C@@H](NC(=O)c4ccccc4)c4ccccc4)C(C)=C1C3(C)C)[C@]1(OC(C)=O)CO[C@@H]1C[C@@H]2O [Paclitaxel] | 22.8 | 2.93 | 1.96 | 2.81 | 3.65 | 5.86 | 7.96 | 44 | 6.32 | 6.96 | 4.73 | 6.75 | 1.26 | 12.2 | 18.6 | 7.28
